Test results taken from patent US20040102454A1, “Phenylahistin and the phenylahistin analogs, a new class of anti-tumor compounds” (priority 1998, published 2004).

How the values were obtained:
A549 cells = assay: Mitotic index; format: cell-based, human
Method: Exponentially growing A549 cells were seeded into 96-well tissue culture plates (2×10^3 cells/100:1/well) and cultured for 16 hours. (−)-PLH or CLC was then added to each well at various concentrations, and the plates were incubated for an additional 24 hours. The number of cells in mitosis (round cells) and total cells in eight randomly selected fields were counted under a phase-contrast microscope. In a series of preliminary studies, it was confirmed that the round cells in this condition were cells in mitosis by using flow cytometry and Hoechst 33258 staining. The mitotic index represented the percentage of round cells among the total number of cells in the eight selected fields.

Microtubule protein = assay: Electron microscopy of microtubule protein polymerization; format: biochemical, bovine; details: 100 μM, 37° C. for 20 min
Method: Microtubule protein (1.5 mg/ml) was polymerized at 37° C. for 20 min in the presence of 100 μM (−)-PLH or vehicle (DMSO). A portion of each sample was diluted 5-fold with 1% glutaraldehyde in the microtubule assembly buffer. Samples were then placed on formvar- and carbon-coated grids, stained with 2% uranyl acetate, and examined using a JEOLJEM-1200 EXII electron microscope JEOL (Tokyo, Japan).

C. glabrata = assay: Antifungal susceptibility testing, broth dilution (NCCLS M38-A); format: cell-based, Candida glabrata; details: Nakaseomyces glabratus; C. glabrata; 80% reduction in turbidity; read-out: MIC
Method: Antifungal susceptibility testing was accomplished according to the methods outlined in the National Committee for Clinical Laboratory Standards, M38-A “Reference Method for Broth Dilution Antifungal Susceptibility Testing of Conidium-Forming Filamentous Fungi; Approved Standard.” This includes testing in RPMI-1640 with glutamine and without bicarbonate, an inoculum size of 0.4-5×10^4, and incubation at 30 or 35° C. for 48 hours. […] Drug concentrations were 0.03-16 μg/ml for the investigational compounds, 0.015-8 μg/ml for itraconazole and griseofulvin.
The minimum lethal concentration (MLC) was determined by plating […] from the MIC concentration and each concentration above the MIC. […] When a MIC was obtained, a minimum fungicidal concentration (MFC) was determined to assess the fungistatic/fungicidal nature of the compound. […] The compound is scored as fungistatic if the cells are able to resume growth and fungicidal if no regrowth is possible because the compound had killed the organisms.

C=CC(C)(C)c1[nH]cnc1/C=C1\NC(=O)[C@H](Cc2ccccc2)NC1=O [(−)-phenylahistin]
mitotic index (A549 cells; 24 hours): increased
reversibility of the anti-mitotic effect (A549 cells; after washing and replacement with fresh medium): reversible
microtubule structures by electron microscopy (Microtubule protein): did not contain such structures
MIC (C. glabrata): > 70 mg/L
